In this experiment the target is T1, PARP-1 (Homo sapiens, UniProt P09874).
T1 construct: gene PARP1
Description: saturation radioligand binding in OVCAR8 wt cells (nonspecific binding with […] veliparib). The format is cell-based.

T1 sequence (P09874 2-1014): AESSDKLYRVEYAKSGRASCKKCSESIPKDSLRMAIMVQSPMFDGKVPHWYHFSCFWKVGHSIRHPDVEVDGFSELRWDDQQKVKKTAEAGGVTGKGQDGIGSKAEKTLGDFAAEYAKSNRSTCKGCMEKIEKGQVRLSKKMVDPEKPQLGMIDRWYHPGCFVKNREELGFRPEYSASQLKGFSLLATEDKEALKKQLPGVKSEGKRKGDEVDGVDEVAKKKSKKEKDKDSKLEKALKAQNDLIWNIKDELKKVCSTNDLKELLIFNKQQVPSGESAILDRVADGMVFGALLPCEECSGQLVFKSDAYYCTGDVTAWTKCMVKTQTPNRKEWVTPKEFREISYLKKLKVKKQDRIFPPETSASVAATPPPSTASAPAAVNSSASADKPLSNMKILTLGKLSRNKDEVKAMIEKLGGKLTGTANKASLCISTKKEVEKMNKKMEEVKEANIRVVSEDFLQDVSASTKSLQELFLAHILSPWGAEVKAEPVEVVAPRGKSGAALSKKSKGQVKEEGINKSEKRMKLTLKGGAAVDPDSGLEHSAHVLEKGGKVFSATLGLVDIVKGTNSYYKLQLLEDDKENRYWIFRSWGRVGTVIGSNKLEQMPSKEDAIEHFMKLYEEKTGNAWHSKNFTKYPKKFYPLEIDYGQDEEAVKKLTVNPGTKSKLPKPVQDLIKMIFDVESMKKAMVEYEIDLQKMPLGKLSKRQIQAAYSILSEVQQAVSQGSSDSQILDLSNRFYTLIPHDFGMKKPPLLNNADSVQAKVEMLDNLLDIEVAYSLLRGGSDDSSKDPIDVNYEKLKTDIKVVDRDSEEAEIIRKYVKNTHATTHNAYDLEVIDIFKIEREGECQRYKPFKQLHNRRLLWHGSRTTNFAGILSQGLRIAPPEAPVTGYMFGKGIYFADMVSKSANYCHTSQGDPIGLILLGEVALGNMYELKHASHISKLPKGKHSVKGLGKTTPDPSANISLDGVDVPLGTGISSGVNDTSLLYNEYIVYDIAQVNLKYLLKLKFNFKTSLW

Substance [125I]KX1 came in with a Kd of 7.7 nM.

Broadly, the Kd is the equilibrium constant for the complex coming apart. Low readings indicate a tighter complex, high ones a looser complex.
